Results from ChEMBL document CHEMBL2331197, “Alstoniaphyllines A-C, unusual nitrogenous derivatives from the bark of Alstonia macrophylla” (J Nat Prod, 2013).
Activity calls are given as the source filed them. No cut-off for these calls is given here.

Tested on: KB
Experiment: Cytotoxicity against human KB cells by resazurin assay
Assay type: functional, cell-based

Row | Compound | IC50 [µM]
1 | CC(=O)C1=COC[C@@H]2[C@H]1C[C@H]1C(=O)C[C@@H]2N1C [ALSTONIAPHYLLINE A] | > 100
2 | CC(=O)C1=COC[C@@H]2[C@H]1C[C@H]1[C@H](O)C[C@@H]2N1C [ANGUSTIMALINE] | > 100
3 | C[C@@H]1OC[C@@H]2[C@@H](C[C@H]3c4c(c5ccccc5n4C)C[C@@H]2N3C)[C@@H]1C=O [Talcarpine] | > 100
4 | COc1cccc2c1C(=O)c1c(O)c3c(c(O)c1C2=O)C[C@@](O)(C(=O)CO)C[C@@H]3O[C@H]1C[C@H](N)[C@H](O)[C@H](C)O1 [DOXORUBICIN] | 0.55
5 | COc1ccc2c(c1)N(C)C(=O)[C@@]21C[C@@H]2N[C@H]1C[C@H]1C(C(C)=O)=COC[C@@H]21 | > 100
6 | C[C@@H]1OC[C@@H]2[C@@H](C[C@H]3C4=Nc5ccccc5C4=C[C@@H]2[N+]3(C)[O-])[C@@H]1CO (stereo not given in full) [ALSTONIAPHYLLINE C] | > 100
7 | COc1ccc2c3c(n(C)c2c1)[C@@H]1C[C@H]2C(C=O)=C(C)OC[C@H]2[C@H](C3)N1C [ALSTOPHYLLAL] | > 100
8 | Cc1c2ccncc2c(C)c2c1[nH]c1ccccc12 [ELLIPTECINE] | 4.87
9 | C/C=C1/CN2CC[C@@]34c5cc(OC)ccc5N(C)[C@H]3[C@@H]2C[C@H]1[C@@H]4C(=O)OC | > 100
10 | CC1=C(C=O)[C@@H]2C[C@H]3c4c(c5ccccc5n4C)C[C@@H]([C@@H]2CO1)N3C [ALSTONERINAL] | > 100
11 | C[C@@H]1OC[C@@H]2[C@@H](C[C@H]3c4c(c5ccccc5n4C)C[C@@H]2N3C)[C@H]1CO [MACROCARPINE B] | > 100
12 | C[C@@H]1OC[C@@H]2[C@@H](C[C@H]3C(=O)C[C@@H]2N3C)[C@@H]1CO [ALSTONIAPHYLLINE B] | > 100
13 | CC(=O)C1=COC[C@H]2[C@@H]3C[C@@]4(C(=O)N(C)c5ccccc54)[C@H](C[C@@H]12)N3 [ALSTONAL] | > 100

Tested on: Plasmodium falciparum
Experiment: Antimalarial activity against multidrug-resistant Plasmodium falciparum K1 by [3H]-hypoxanthine incorporation assay
Assay type: functional, organism-based

Row | Compound | Activity | IC50 [µM]
14 | COc1ccc2c(c1)N(C)C(=O)[C@@]21C[C@@H]2N[C@H]1C[C@H]1C(C(C)=O)=COC[C@@H]21 | Active | 
15 | CC(=O)C1=COC[C@H]2[C@@H]3C[C@@]4(C(=O)N(C)c5ccccc54)[C@H](C[C@@H]12)N3 [ALSTONAL] |  | 7.6
